Measured values published in US10670605B2, “Cysteine reactive probes and uses thereof” (The Scripps Research Institute, priority 2015, dated 2020).

How the values were obtained:
Assay in all cases: Competitive isoTOP-ABPP in situ (fragment-treated cells)
Format in all cases: cell-based
Conditions in all cases: 200 μM, insitu
[1] = target: T1, cysteines in MDA-MB-231 and Ramos cells (Homo sapiens, UniProt Q13418)
T1 sequence (Q13418 1-452): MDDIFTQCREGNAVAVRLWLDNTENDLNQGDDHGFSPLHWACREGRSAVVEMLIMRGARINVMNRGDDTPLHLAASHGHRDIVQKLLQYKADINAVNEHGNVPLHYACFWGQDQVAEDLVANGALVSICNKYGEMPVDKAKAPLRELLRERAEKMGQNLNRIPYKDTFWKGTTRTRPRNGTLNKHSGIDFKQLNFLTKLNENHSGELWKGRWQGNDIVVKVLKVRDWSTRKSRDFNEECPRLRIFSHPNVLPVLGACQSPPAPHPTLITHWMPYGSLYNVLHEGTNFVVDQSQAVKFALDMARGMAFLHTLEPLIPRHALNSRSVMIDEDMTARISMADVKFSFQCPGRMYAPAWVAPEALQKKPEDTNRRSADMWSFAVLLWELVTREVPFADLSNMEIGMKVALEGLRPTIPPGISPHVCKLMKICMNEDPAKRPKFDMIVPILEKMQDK

[2] = target: cysteines in MDA-MB-231 and Ramos cells (Homo sapiens, UniProt Q7Z2W4)
cysteines in MDA-MB-231 and Ramos cells (Homo sapiens, UniProt Q7Z2W4), sequence (Q7Z2W4 whole entry): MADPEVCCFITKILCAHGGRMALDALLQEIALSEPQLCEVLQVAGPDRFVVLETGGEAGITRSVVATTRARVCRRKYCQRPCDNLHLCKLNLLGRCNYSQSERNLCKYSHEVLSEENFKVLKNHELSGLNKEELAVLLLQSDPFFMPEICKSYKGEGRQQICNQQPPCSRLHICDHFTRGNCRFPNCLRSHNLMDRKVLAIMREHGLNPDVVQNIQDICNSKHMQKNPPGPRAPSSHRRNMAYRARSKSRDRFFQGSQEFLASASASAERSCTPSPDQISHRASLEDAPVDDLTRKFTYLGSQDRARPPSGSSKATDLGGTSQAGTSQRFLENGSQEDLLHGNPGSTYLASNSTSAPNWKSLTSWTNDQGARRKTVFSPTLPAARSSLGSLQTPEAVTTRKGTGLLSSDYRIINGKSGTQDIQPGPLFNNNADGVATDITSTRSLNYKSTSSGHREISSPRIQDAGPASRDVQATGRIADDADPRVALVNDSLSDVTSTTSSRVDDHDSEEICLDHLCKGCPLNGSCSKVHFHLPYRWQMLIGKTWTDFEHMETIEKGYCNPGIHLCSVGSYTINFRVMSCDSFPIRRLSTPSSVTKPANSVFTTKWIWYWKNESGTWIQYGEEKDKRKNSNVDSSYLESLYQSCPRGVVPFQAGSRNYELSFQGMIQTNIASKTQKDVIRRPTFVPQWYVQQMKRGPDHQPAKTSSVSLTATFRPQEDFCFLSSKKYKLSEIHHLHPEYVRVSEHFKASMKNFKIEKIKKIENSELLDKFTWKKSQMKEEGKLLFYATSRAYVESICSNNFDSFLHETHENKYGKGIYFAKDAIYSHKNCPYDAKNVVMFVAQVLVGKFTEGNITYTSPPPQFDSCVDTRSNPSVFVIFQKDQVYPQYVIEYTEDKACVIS

[3] = target: T2, cysteines in MDA-MB-231 and Ramos cells (Homo sapiens, UniProt O95336)
T2 sequence (O95336 1-258): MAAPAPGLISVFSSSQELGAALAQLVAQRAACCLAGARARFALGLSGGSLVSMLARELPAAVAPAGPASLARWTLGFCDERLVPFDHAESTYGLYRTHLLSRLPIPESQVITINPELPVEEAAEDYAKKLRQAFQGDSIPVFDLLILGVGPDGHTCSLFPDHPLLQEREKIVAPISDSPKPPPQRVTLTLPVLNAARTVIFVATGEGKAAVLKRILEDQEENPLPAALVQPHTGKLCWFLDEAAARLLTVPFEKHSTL

[4] = target: T3, cysteines in MDA-MB-231 and Ramos cells (Homo sapiens, UniProt P50570)
T3 sequence (P50570 1-870): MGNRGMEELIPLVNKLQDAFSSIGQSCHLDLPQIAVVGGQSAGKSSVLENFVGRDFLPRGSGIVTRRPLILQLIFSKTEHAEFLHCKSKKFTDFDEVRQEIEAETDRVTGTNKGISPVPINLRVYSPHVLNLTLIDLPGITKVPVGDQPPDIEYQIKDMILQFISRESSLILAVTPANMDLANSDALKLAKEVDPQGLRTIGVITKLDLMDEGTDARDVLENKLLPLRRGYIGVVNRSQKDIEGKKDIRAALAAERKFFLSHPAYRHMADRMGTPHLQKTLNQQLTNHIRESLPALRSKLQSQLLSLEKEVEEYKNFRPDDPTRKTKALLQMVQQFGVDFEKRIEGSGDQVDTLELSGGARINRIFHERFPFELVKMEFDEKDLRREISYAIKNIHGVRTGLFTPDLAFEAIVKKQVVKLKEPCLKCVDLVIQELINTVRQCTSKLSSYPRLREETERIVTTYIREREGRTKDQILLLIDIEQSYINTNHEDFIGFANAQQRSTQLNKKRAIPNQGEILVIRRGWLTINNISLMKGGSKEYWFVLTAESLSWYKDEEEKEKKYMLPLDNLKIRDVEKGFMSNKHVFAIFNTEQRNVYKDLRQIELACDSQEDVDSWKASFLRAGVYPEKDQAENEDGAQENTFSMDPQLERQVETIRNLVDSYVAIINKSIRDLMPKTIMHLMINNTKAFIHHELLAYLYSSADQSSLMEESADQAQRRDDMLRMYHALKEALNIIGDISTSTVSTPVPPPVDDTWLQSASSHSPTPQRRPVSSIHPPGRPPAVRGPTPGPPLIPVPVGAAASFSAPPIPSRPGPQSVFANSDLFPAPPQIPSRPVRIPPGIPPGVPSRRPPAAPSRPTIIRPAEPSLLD

[5] = target: T4, cysteines in MDA-MB-231 and Ramos cells (Homo sapiens, UniProt A6NDU8)
T4 sequence (A6NDU8 1-294): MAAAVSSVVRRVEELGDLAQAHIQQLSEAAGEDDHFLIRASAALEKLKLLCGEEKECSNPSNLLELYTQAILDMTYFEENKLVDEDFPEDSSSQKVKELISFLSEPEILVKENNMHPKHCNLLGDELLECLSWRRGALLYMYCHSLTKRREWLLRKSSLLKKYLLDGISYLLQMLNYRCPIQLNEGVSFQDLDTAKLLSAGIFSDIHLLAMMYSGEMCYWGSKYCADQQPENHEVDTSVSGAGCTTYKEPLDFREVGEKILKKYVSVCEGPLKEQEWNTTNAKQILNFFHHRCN

[6] = target: cysteines in MDA-MB-231 and Ramos cells (Homo sapiens, UniProt Q02252)
cysteines in MDA-MB-231 and Ramos cells (Homo sapiens, UniProt Q02252), sequence (Q02252 34-535): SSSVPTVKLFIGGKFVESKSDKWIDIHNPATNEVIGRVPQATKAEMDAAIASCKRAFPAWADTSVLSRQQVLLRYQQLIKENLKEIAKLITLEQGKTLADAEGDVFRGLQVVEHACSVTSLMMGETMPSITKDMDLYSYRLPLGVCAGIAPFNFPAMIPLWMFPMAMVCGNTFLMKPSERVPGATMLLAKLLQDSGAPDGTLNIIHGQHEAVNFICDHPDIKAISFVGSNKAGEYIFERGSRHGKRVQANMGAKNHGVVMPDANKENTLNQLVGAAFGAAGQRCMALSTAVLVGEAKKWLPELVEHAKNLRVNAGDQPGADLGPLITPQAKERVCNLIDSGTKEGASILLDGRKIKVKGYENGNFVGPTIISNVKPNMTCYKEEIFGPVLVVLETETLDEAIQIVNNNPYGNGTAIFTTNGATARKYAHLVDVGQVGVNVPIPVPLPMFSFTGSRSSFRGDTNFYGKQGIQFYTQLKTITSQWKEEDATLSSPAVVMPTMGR

[7] = target: T5, cysteines in MDA-MB-231 and Ramos cells (Homo sapiens, UniProt P30101)
T5 sequence (P30101 25-505): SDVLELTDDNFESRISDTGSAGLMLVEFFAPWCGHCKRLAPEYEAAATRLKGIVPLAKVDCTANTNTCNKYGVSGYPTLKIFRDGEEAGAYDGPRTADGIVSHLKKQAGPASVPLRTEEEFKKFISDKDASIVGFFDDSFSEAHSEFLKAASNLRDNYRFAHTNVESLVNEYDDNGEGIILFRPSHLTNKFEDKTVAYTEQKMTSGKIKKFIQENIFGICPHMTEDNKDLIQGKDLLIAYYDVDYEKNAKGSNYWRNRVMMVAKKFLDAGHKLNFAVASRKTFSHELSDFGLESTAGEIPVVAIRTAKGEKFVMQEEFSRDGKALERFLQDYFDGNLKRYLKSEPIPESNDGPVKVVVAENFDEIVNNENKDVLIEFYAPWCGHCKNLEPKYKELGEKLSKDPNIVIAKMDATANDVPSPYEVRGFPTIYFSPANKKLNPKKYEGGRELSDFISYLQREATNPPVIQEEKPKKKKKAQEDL

[8] = target: T6, cysteines in MDA-MB-231 and Ramos cells (Homo sapiens, UniProt Q13162)
T6 sequence (Q13162 38-271): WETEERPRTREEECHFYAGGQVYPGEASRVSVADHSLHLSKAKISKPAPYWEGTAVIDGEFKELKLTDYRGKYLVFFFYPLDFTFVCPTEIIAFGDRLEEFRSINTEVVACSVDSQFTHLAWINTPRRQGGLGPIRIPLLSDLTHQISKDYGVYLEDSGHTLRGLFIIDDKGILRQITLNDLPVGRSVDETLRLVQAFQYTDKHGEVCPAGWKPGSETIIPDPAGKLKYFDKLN

SMILES | isoTOP-ABPP ratio Q13418_C346 [1]; 231 | isoTOP-ABPP ratio Q7Z2W4_C645 [2]; 231 | isoTOP-ABPP ratio O95336_C32 [3]; 231 | isoTOP-ABPP ratio P50570_C27 [4]; 231 | isoTOP-ABPP ratio A6NDU8_C179 [5]; 231 | isoTOP-ABPP ratio Q02252_C317 [6]; 231 | isoTOP-ABPP ratio P30101_C57 [7]; 231 | isoTOP-ABPP ratio P30101_C406 [7]; 231 | isoTOP-ABPP ratio O95336_C32 ([3]; ramos) | isoTOP-ABPP ratio P30101_C406 ([7]; ramos) | isoTOP-ABPP ratio Q7Z2W4_C645 ([2]; ramos) | isoTOP-ABPP ratio P50570_C27 ([4]; ramos) | isoTOP-ABPP ratio P30101_C57 ([7]; ramos) | other results
Cc1ccc(C=C(C#N)C(=O)NCCN2CCOCC2)cc1 [compound 41] | 0.6 | 0.9 | 0.6 | 0.5 | 0.6 | 0.8 | 1.3 | 1.0 |  |  |  |  |  | 
O=C(CCl)NC(=O)NC12CC3CC(CC(C3)C1)C2 [compound 12] | 0.6 | 3.3 | 20.0 | 0.7 |  | 3.2 | 20.0 | 20.0 |  |  |  |  |  | isoTOP-ABPP ratio Q13162_C51 [8]; 231: 1.0
C=CC(=O)N(Cc1cccnc1)c1cc(C(F)(F)F)cc(C(F)(F)F)c1 [compound 31] | 0.6 |  |  |  |  |  | 0.9 | 0.8 | 1.7 | 1.1 |  |  |  | isoTOP-ABPP ratio Q13162_C51 ([8]; ramos): 1.3
O=C(CCl)NCCc1c[nH]c2ccccc12 [compound 13] | 0.7 | 1.3 | 1.6 |  | 0.8 | 1.3 |  |  | 2.2 | 2.0 | 0.9 | 1.0 | 1.6 | isoTOP-ABPP ratio Q13418_C346 ([1]; ramos): 2.1
O=C(CCl)N1CCN(CC(=O)N2CCOCC2)CC1 [compound 29] |  |  |  |  |  |  |  |  | 3.0 | 1.5 | 1.6 | 1.0 | 1.2 | isoTOP-ABPP ratio A6NDU8_C179 ([5]; ramos): 1.0; isoTOP-ABPP ratio Q02252_C317 ([6]; ramos): 1.2
O=C(CCl)N1CCC(Cc2ccccc2)CC1 [compound 9] |  |  |  |  |  |  |  |  |  |  |  |  |  | isoTOP-ABPP reactivity Q13418_C346 ILK [1]; 231: 2.7; isoTOP-ABPP reactivity Q7Z2W4_C645 ZC3HAV1 [2]; 231: 3.0; isoTOP-ABPP reactivity Q13162_C51 PRDX4 [8]; 231: 3.3; isoTOP-ABPP reactivity O95336_C32 PGLS [3]; 231: 6.7; isoTOP-ABPP reactivity A6NDU8_C179 C5orf51 [5]; 231: 20.0; isoTOP-ABPP reactivity P30101_C406 PDIA3 [7]; 231: 1.4
